We go through four compounds from US5468744A (priority 1994, dated 1995).

For data set [1] the following is noted: in vivo; cited from earlier work.
A short description of data set [2]: Tail-flick test, analgesic activity in male CD1 mice (oral, 15 min). The data set is classed as in vivo. Conditions: for ED50: Mus musculus, po, 0.25 h, read-out: ED50 (95% confidence interval), drug alone; for ED50 at 15 min (95% Cl's), Tramadol: tramadol component. As to the method: For each of the ratios of individual drugs used in the drug combinations tested (Table I), stock solutions were prepared that corresponded to twice the dose of each drug having a concentration expressed in mgdrug(s) per 5 mL of distilled water. For example, in the case of the 1:20 tramadol:codeine ratio, 9.1 mg of tramadol hydrochloride (=8.0 mg of tramadol as the base) and 217.1 mg of codeine phosphate (=160.0 mg of codeine as the free base) were each dissolved in separate 5 mL vials of distilled water to form individual stock solutions. Equal volumes of each of the stock solutions were then combined to prepare the final desired drug combination per 10 mL of distilled water. […] Then 10 mL/kg of the stock solution was injected into the mouse. See, Table I. Each ratio was prepared separately in a similar manner and injected in a volume of 10 mL/kg per mouse.
The preparation of different ratios of a tramadol/oxycodone combination is effected by preparing a stock solution having a concentration expressed in mgdrugs per 10 mL of dissolved water. […] Each ratio was prepared separately in a similar manner and injected in a volume of 10 mL/kg per mouse.
Some mice were dosed orally with the compositions as made in Example 1 and as shown in Table 1 and other mice were dosed orally with the compositions as made in Example 2 and as shown in Table II. The dosing volume was 10 mL/kg.
Analgesic activity was assessed employing the tail-flick test as described by F. D'Amour et al., J. Pharmacol. Exp. Ther., 72, 74 (1941). The test involved subjecting the tail of a mouse to a focused heat stimulus and monitoring the response, i.e., "flicking" (removing) of the tail from the source of the stimulus. The reaction time (latency) of the response was first measured without the administration of any drug composition, and repeated fifteen minutes after the administration of compositions of the invention wherein the components of the compositions are in various ratios. Each mouse was only subjected to one pre- and post-administration test.
The analysis of possible superadditivity for the compositions at each fixed ratio was determined as disclosed by R. J. Tallarida et al., Life Sci., 45, 947 (1989). This procedure involved determination of the total amount in the mixture that is required to produce a specified level of effect, such as 50% (ED50mix), and the corresponding total amount that would be expected under simple additivity (ED50add). Where it was established that ED50mix <ED50add for a specific fixed-ratio,then that composition ratio is superadditive. Both the 1quantities ED50mix and ED50add were random variables; ED50mix was estimated from the dose-response curve for a specific fixed-ratio; ED50add was obtained by combining the ED50 estimates for the two drugs under additivity. ED50mix was then compared to ED50add via a t-test. […] The interaction between tramadol and codeine or […] were determined at precise dosage ratios of tramadol hydrochloride and codeine or oxycodone. Multiple (typically 4-6) coded doses of each selected combination were studied for analgesic effectiveness after 15 minutes using an experimental design which permitted the complete randomization of the separate dosage forms tested.
In the Figures, the diagonal line joining the ED50 values of the two drugs given separately represents the simple additivity of a composition effects at different component ratio. The dotted adjacent lines to the diagonal line define the 95% confidence interval. ED50's falling under the curve (between the line and the origin) indicate superadditivity, i.e., unexpected enhancement of effects. The diagonal dashed lines radiating from the origin represent the dose ratios of tramadol hydrochloride to codeine phosphate (FIG. 1) or oxycodone sulfate (FIG. 2) used in mice receiving the combined drug dosages. The bars through the ED50 points for tramadol and codeine or oxycodone compositions represent the 95% confidence intervals of the ED50.

Setting [3] is: drug alone, p.o., tail-flick, mice, 15 min.

Where two headings read alike, the source gives them in different places.

Consider `COc1ccc2c3c1O[C@H]1C(=O)CC[C@H]4[C@@H](C2)N(C)CC[C@]314` [hydrocodone], for which the side effects entry in data set [1] was “respiratory depression, constipation, tolerance and abuse liability”.
Take `COc1ccc2c3c1O[C@H]1[C@@H](O)C=C[C@H]4[C@@H](C2)N(C)CC[C@@]341` [Codeine only]: the side effects result in data set [1] is “respiratory depression, constipation, tolerance and abuse liability”. For the same compound, in data set [2] (setting [3]), the ED50 – broadly, the dose that gives a 50% effect, or the effect in half of the subjects – turned out to be 71.3 mg/kg. For the same compound, the Analgesia in data set [2] (codeine 10 mg/kg p.o., 15 min) is recorded as 0/10; in data set [2] (codeine 20 mg/kg p.o., 15 min), 1/10; in data set [2] (codeine 40 mg/kg p.o., 15 min) it was 1/10; in data set [2] (codeine 80 mg/kg p.o., 15 min) it was 5/10; in data set [2] (codeine 160 mg/kg p.o., 15 min), 10/10.
With `COc1cccc(C2(O)CCCCC2CN(C)C)c1` (stereo not drawn) [tramadol only, (1RS, 2RS) trans-2-[(dimethylamino)-methyl]-1-(3-methoxyphenyl)cyclohexanol], the 50% effective dose (ED50) at 15 min (95% Cl's), Tramadol was 76.8 mg/kg in data set [2] (Table I (tramadol:codeine), p.o., 15 min) and 76.8 mg/kg in data set [2] (Table II (tramadol:oxycodone), p.o., 15 min). Besides, the “ED50 (95% confidence interval), drug alone” value in data set [2] (setting [3]) is 76.8 (59.2-99.7) mg/kg.
Consider `COc1ccc2c3c1O[C@H]1C(=O)CC[C@@]4(O)[C@@H](C2)N(C)CC[C@]314` [oxycodone only], for which, in data set [1], the side effects result was “respiratory depression, constipation, tolerance and abuse liability”. Also, the ED50 in data set [2] is 4.2 mg/kg. The Analgesia in data set [2] (oxycodone 0.5 mg/kg p.o., 15 min) is recorded as 0/10; in data set [2] (oxycodone 1 mg/kg p.o., 15 min), 2/20; in data set [2] (oxycodone 2 mg/kg p.o., 15 min) it was 3/10; in data set [2] (oxycodone 3 mg/kg p.o., 15 min) it was 2/10; in data set [2] (oxycodone 6 mg/kg p.o., 15 min) it was 5/10; in data set [2] (oxycodone 10 mg/kg p.o., 15 min), 9/10. Besides, the Analgesia is recorded as 10/10 in data set [2] (oxycodone 20 mg/kg p.o., 15 min) and 10/10 in data set [2] (oxycodone 30 mg/kg p.o., 15 min).
